These results are taken from ChEMBL document CHEMBL2074278, “Temocaprilat, a novel angiotensin-converting enzyme inhibitor, is excreted in bile via an ATP-dependent active transporter (cMOAT) that is deficient in Eisai hyperbilirubinemic mutant rats (EHBR)” (J Pharmacol Exp Ther, 1997).

Common to all, as to type: functional, cell membranes, Sprague-Dawley, Bile canalicular membrane vesicle
Series [1] addresses T1, ATP-binding cassette sub-family C member 2 (Rattus norvegicus, UniProt Q63120). As to the kind of experiment: TP_TRANSPORTER: inhibition of Temocaprilat uptake in bile canalicular membrane vesicles from SD rat.
The target in series [2] is T1, ATP-binding cassette sub-family C member 2. Put plainly: TP_TRANSPORTER: inhibition of DNP-SG uptake in bile canalicular membrane vesicles from SD rat.
Substrate in series [3]: O=C(O)CN1C[C@@H](c2cccs2)SC[C@H](N[C@@H](CCc2ccccc2)C(=O)O)C1=O
As to the kind of experiment: TP_TRANSPORTER: uptake in bile canalicular membrane vesicles from SD rat.

With `N[C@@H](CCC(=O)N[C@H](CSc1ccc([N+](=O)[O-])cc1[N+](=O)[O-])C(=O)NCC(=O)O)C(=O)O`, in series [1], the Ki came out at 25.8 µM.
Turning to `O=C(O)CN1C[C@@H](c2cccs2)SC[C@H](N[C@@H](CCc2ccccc2)C(=O)O)C1=O` [TEMOCAPRILAT], in series [2], the affinity, expressed as Ki, was 343 µM.

B1: ATP-binding cassette sub-family C member 2 (Rattus norvegicus) (protein)
chain: MDKFCNSTFWDLSLLESPEADLPLCFEQTVLVWIPLGFLWLLAPWQLYSVYRSRTKRSSITKFYLAKQVFVVFLLILAAIDLSLALTEDTGQATVPPVRYTNPILYLCTWLLVLAVQHSRQWCVRKNSWFLSLFWILSVLCGVFQFQTLIRALLKDSKSNMAYSYLFFVSYGFQIVLLILTAFSGPSDSTQTPSVTASFLSSITFSWYDRTVLKGYKHPLTLEDVWDIDEGFKTRSVTSKFEAAMTKDLQKARQAFQRRLQKSQRKPEATLHGLNKKQSQSQDVLVLEEAKKKSEKTTKDYPKSWLIKSLFKTFHVVILKSFILKLIHDLLVFLNPQLLKLLIGFVKSSNSYVWFGYICAILMFAVTLIQSFCLQSYFQHCFVLGMCVRTTVMSSIYKKALTLSNLARKQYTIGETVNLMSVDSQKLMDATNYMQLVWSSVIQITLSIFFLWRELGPSILAGVGVMVLLIPVNGVLATKIRNIQVQNMKNKDKRLKIMNEILSGIKILKYFAWEPSFQEQVQGIRKKELKNLLRFGQLQSLLIFILQITPILVSVVTFSVYVLVDSANVLNAEKAFTSITLFNILRFPLSMLPMVTSSILQASVSVDRLERYLGGDDLDTSAIRRVSNFDKAVKFSEASFTWDPDLEATIQDVNLDIKPGQLVAVVGTVGSGKSSLVSAMLGEMENVHGHITIQGSTAYVPQQSWIQNGTIKDNILFGSEYNEKKYQQVLKACALLPDLEILPGGDMAEIGEKGINLSGGQKQRVSLARAAYQDADIYILDDPLSAVDAHVGKHIFNKVVGPNGLLAGKTRIFVTHGIHFLPQVDEIVVLGKGTILEKGSYRDLLDKKGVFARNWKTFMKHSGPEGEATVNNDSEAEDDDDGLIPTMEEIPEDAASLAMRRENSLRRTLSRSSRSSSRRGKSLKNSLKIKNVNVLKEKEKEVEGQKLIKKEFVETGKVKFSIYLKYLQAVGWWSILFIILFYGLNNVAFIGSNLWLSAWTSDSDNLNGTNNSSSHRDMRIGVFGALGLAQGICLLISTLWSIYACRNASKALHGQLLTNILRAPMRFFDTTPTGRIVNRFSGDISTVDDLLPQTLRSWMMCFFGIAGTLVMICMATPVFAIIIIPLSILYISVQVFYVATSRQLRRLDSVTKSPIYSHFSETVTGLPIIRAFEHQQRFLAWNEKQIDINQKCVFSWITSNRWLAIRLELVGNLVVFCSALLLVIYRKTLTGDVVGFVLSNALNITQTLNWLVRMTSEAETNIVAVERISEYINVENEAPWVTDKRPPADWPRHGEIQFNNYQVRYRPELDLVLKGITCNIKSGEKVGVVGRTGAGKSSLTNCLFRILESAGGQIIIDGIDVASIGLHDLRERLTIIPQDPILFSGSLRMNLDPFNKYSDEEVWRALELAHLRSFVSGLQLGLLSEVTEGGDNLSIGQRQLLCLGRAVLRKSKILVLDEATAAVDLETDSLIQTTIRKEFSQCTVITIAHRLHTIMDSDKIMVLDNGKIVEYGSPEELLSNRGSFYLMAKEAGIENVNHTEL
As to B1, the Km in series [3] was 92.5 µM.
